The values that follow come from US20040235019A1, “Diagnostics and therapeutics for the gene expression signature of PPAR-gamma receptor ligand” (Agouron Pharmaceuticals, Inc., priority 2003, published 2004).

The conditions of data set [1]: patients; personal communication (Heidi Camp, Pfizer Inc); cited from earlier work.
Another data set deals with 3T3-L1 cells. The data set is described as follows: Gene profile of 3T3-L1 cells treated with Rosiglitazone after PPARγ1 antisense knockdown. Format: cell-based, murine. The note with it: antisense 72 hours. The procedure: 3T3-L1 cells were treated for 72 hours with an antisense construct whose nucleic acid sequence was complementary to PPARγ1 and treated with Rosiglitazone. As a separate control, 3T3-L1 were cells treated with the antisense construct, but without Rosiglitazone. Gene expression levels were determined using Affymetix microarray analysis. Following the incubation, RNA was extracted from the cells using Trizol (Invitrogen) followed by cleanup using an RNeasy kit (Qiagen) including DNase I treatment. Probes from each of these cell populations were prepared by reverse transcription-polymerase chain reaction (RT-PCR) and subsequently biotin labeled by in vitro transcription using the BioArray High Yield RNA Transcript Labeling Kit (Enzo). The probes were then hybridized to U74Aver2 Affymetrix gene chips. The hybridization was conducted as follows The hybridization was for 16 hours at 45° C. and 60 RPM in a rotisserie box.

Take `Cc1oc(-c2ccccc2)nc1CCOc1ccc(C[C@H](Nc2ccccc2C(=O)c2ccccc2)C(=O)O)cc1` [Farglitazar]: the “incidence of edema clinically” value in data set [1] is given as “most frequent incidence of edema clinically”.
In the case of `CN(CCOc1ccc(CC2SC(=O)NC2=O)cc1)c1ccccn1` (centres unmarked) [Rosiglitazone], the “genes of Tables I and II also up- or down-regulated by Rosiglitazone in cells treated with PPARγ1 antisense nucleic acid” value in the data set with 3T3-L1 cells stood at 91%.
